Assay results reported in patent US5340800A, “Peptide medicaments for the treatment of disease” (priority 1992, dated 1994).
Like-named read-outs stand apart in the source and are kept apart here. No end group written: not given here.

Test system: polymorphonuclear leukocyte adhesion to TNF activated endothelial cells
Assay type: cell-based, human
Conditions: for Average % Change of PMN Adhesion to TNF Activated ECs: average over PMN donors (# donors in parentheses); for Percent Change of Adhesion: donor 140 (second line), lower part of Table 4
Protocol: Leukocyte adherence can be measured using several assays known in the art, and the preferred assay is described by Charo, et al., 1985, Blood, 65:473. Briefly, the assay consists of labelling leukocytes with an appropriate label, incubating them with endothelial cells and determining the number of leukocytes that adhere. Preferably the cells are labelled with a gamma ray emitting isotope and the preferred labels are ^111 Indium-oxide or ^51 chromium.
Leukocytes may be isolated from human donors using standard techniques. This generally consists of isolating blood in a physiologically balanced salt solution containing an appropriate anticoagulant, and separating the leukocytes by an appropriate separation step, preferably on Ficoll-Hypaquegradients. Contaminating erythrocytes can be removed by hypotonic lysis. The resulting leukocytes are suspended in a physiologically buffered solution, pH 7.4. The preferred physiological buffered solution is Hank's balanced salt solution that is calcium and magnesium free.
The isolated leukocytes can then be labelled by incubating them for an appropriate time, generally 15 minutes, with the desired radioisotope at a predetermined concentration. The radiolabelled cells are washed to remove unincorporated label, and then suspended in an appropriate solution to perform the adhesion assay described below.
Endothelial cells can be prepared from a number of sources and by several techniques known in the art. Preferably they are obtained from human umbilical veins using the procedure of Charo et al., above. Generally, endothelial cells are isolated by enzymatic digestion of the umbilical veins using, preferably, collagenase as described by Jaffe, E. A., et al., 1973, J. of Clin. Invest, 52:2745. The cells are grown on an appropriate tissue culture substratum, preferably gelatine-coated surfaces.
The endothelial cells may be grown in a variety of tissue culture media containing appropriate supplements such as an appropriate concentration of fetal calf serum, and other supplements/additives routinely utilized by those skilled in this art that are recognized as being favorable for endothelial cells. The endothelial cells may be passaged with a dilute solution of an appropriate protease, and if desired a metal ion chelator. Preferably a solution consisting of 0.05 to 0.25% trypsin and 0.02% EDTA is used. To ensure that the cells are indeed endothelial cells, they are tested by immunofluorescence for Factor VIII antigen, a known endothelial cell marker.
Leukocyte adherence to endothelial cell monolayers may be determined as follows. Early passage endothelial cells, generally not beyond the fifth passage, are cultured on an appropriate substratum and in a suitable cell culture medium. The culture substratum is preferably pre-coated with an appropriate substance that enhances the adherence of the endothelial cells. Several such substances are known including fibronectin, poly-L-lysine, gelatin and laminin. Fibronectin is preferred. An appropriate culture substratum is a 96 well micro titer plate, and a suitable medium is Medium 199 containing fetal calf serum and other supplements known to be beneficial for the growth and maintenance of endothelial cells that are well known to those skilled in the art. Prior to adding a predetermined number of labelled leukocytes, the endothelial cell monolayer is washed with a physiologically balanced salt solution containing a reduced amount of fetal calf serum, preferably 1%. The preferred solution is RPMI supplemented with 1% fetal calf serum.
The endothelial cell monolayer containing added leukocytes is incubated for a time sufficient to permit maximum adherence of the leukocytes, and preferably this is conducted at 37° C. for 30 minutes in an appropriate cell culture atmosphere. Generally this would consist of growing and incubating the cells for the assay period in 5% CO2, 95% air, and 95% humidity. […]

With “CRIARLEEKVKTLKAQNSELASTANMLREQVAQLKQKVMNHA [WT, NH2 --Cys--Arg--Ile--Ala--Arg--Leu--Glu--Glu--Lys--Val--Lys--Thr--Leu--Lys--Ala--Gln--Asn--Ser--Glu--Leu--Ala--Ser--Thr--Ala--Asn--Met--Leu--Arg--Glu--Gln--Val--Ala--Gln--Leu--Lys--Gln--Lys--Val--Met--Asn--His--Ala--COOH, reference compound]” the “activity on PMN adhesion at 10^-4 M (in words)” value (10^-4 M) was “inhibited polymorphonuclear leukocyte adhesion”, the “Average % Change of PMN Adhesion to TNF Activated ECs” value (“Average % Change of PMN Adhesion” for short) (10^-4 M) was -54% and the “Average % Change of PMN Adhesion” value (10^-5 M) was 0%. For the same sequence, the “Average % Change of PMN Adhesion” value (10^-6 M) was “+22%”, the “Average % Change of PMN Adhesion” value (10^-7 M) was “+8%” and the “Average % Change of PMN Adhesion” value (10^-8 M) was -15%.

For “KTVLPFVNTHPDKLRN [Peptide 6-16, NH2 --Lys--Thr--Val--Leu--Pro--Phe--Val--Asn--Thr--His--Pro--Asp--Lys--Leu--Arg--Asn--COOH]”, the “Average % Change of PMN Adhesion” value (10^-4 M) was “+6%”, the “Average % Change of PMN Adhesion” value (10^-6 M) was -11% and the “Average % Change of PMN Adhesion” value (10^-8 M) was -25%.

For “SYSMLDDLRNVKKLG [Peptide 1-15, NH2 --Ser--Tyr--Ser--Met--Leu--Asp--Asp--Leu--Arg--Asn--Val--Lys--Lys--Leu--Gly--COOH]”, the “Average % Change of PMN Adhesion” value (10^-4 M) was -24%, the “Average % Change of PMN Adhesion” value (10^-6 M) was -9% and the “Average % Change of PMN Adhesion” value (10^-8 M) was -4%.

“DGFHFAGDGKLGAI [Peptide 4-14, NH2 --Asp--Gly--Phe--His--Phe--Ala--Gly--Asp--Gly--Lys--Leu--Gly--Ala--Ile--COOH]” was tested, and the “inhibitory activity in the PMN adhesion assay (in words)” value was “little activity”, the “Average % Change of PMN Adhesion” value (10^-4 M) was -9% and the “Average % Change of PMN Adhesion” value (10^-5 M) was “+28%”. For the same sequence, the “Average % Change of PMN Adhesion” value (10^-6 M) was -4%, the “Average % Change of PMN Adhesion” value (10^-7 M) was “+12%” and the “Average % Change of PMN Adhesion” value (10^-8 M) was -6%.

“IGWRNVTRLLVFATD [Peptide 4-15, NH2 --Ile--Gly--Trp--Arg--Asn--Val--Thr--Arg--Leu--Leu--Val--Phe--Ala--Thr--Asp--COOH]” was tested, and the “concentration of peak inhibitory activity in the PMN adhesion assay” value was 10^4 to 10^-5 M, the “inhibitory activity in the PMN adhesion assay (in words)” value was “active” and the “Percent Change of Adhesion” value (10^-5 M (first column (so in the source))) was -53%. For the same sequence, the “Percent Change of Adhesion, Average” value (10^-5 M, average of donors 140, 195, 363, 515, 140) was -5 ± 3%, the “Percent Change of Adhesion” value (10^-5 M) was 0% and the “Percent Change of Adhesion, Average” value (10^-6 M, average of donors 140, 195, 363, 515, 140) was -6 ± 2%. For the same sequence, the “Percent Change of Adhesion, Average” value (1000.0) was -17 ± 2% and the “Percent Change of Adhesion, Average” value (100000.0) was -58 ± 7%.

With “RIARLKEKVKTLKAKNSELASTANMLREQVAQLKQKVMNHA [JUN-k, NH2 --Arg--Ile--Ala--Arg--Leu--Lys--Glu--Lys--Val--Lys--Thr--Leu--Lys--Ala--Lys--Asn--Ser--Glu--Leu--Ala--Ser--Thr--Ala--Asn--Met--Leu--Arg--Glu--Gln--Val--Ala--Gln--Leu--Lys--Gln--Lys--Val--Met--Asn--His--Ala--COOH, reference compound]” the “activity on PMN adhesion at 10^-4 M (in words)” value (10^-4 M) was “inhibited polymorphonuclear leukocyte adhesion”, the “Average % Change of PMN Adhesion” value (10^-4 M) was -25% and the “Average % Change of PMN Adhesion” value (10^-5 M) was -15%. For the same sequence, the “Average % Change of PMN Adhesion” value (10^-6 M) was “+3%” and the “Average % Change of PMN Adhesion” value (10^-7 M) was -7%.

With “RIARLEEKVKTLKAENSELASTANMLREEVAQLEQEVMNHA [Peptide 2X, NH2 --Arg--Ile--Ala--Arg--Leu--Glu--Glu--Lys--Val--Lys--Thr--Leu--Lys--Ala--Glu--Asn--Ser--Glu--Leu--Ala--Ser--Thr--Ala--Asn--Met--Leu--Arg--Glu--Glu--Val--Ala--Gln--Leu--Glu--Gln--Glu--Val--Met--Asn--His--Ala--COOH, reference compound]” the “concentration range over which the peptide had activity on PMN adhesion” value was 10^-4 to 10^-8 M, the “Average % Change of PMN Adhesion” value (10^-4 M) was -38% and the “Average % Change of PMN Adhesion” value (10^-5 M) was -1%. For the same sequence, the “Average % Change of PMN Adhesion” value (10^-7 M) was -23% and the “Average % Change of PMN Adhesion” value (10^-8 M) was -20%.

“SSNVVHLIKNAYNKLSS [Peptide 3-17, NH2 --Ser--Ser--Asn--Val--Val--His--Leu--Ile--Lys--Asn--Ala--Tyr--Asn--Lys--Leu--Ser--Ser--COOH]” was tested, and the “Average % Change of PMN Adhesion” value (10^-4 M) was -13%, the “Average % Change of PMN Adhesion” value (10^-5 M) was “+43%” and the “Average % Change of PMN Adhesion” value (10^-6 M) was “+13%”. The “Average % Change of PMN Adhesion” value (10^-7 M) was -18% and the “Average % Change of PMN Adhesion” value (10^-8 M) was -7%.

“DAPEGGLDAMMQVA [Peptide 5-14, NH2 --Asp--Ala--Pro--Glu--Gly--Gly--Leu--Asp--Ala--Met--Met--Gln--Val--Ala--COOH]” was tested, and the “Average % Change of PMN Adhesion” value (10^-4 M) was “+9%”, the “Average % Change of PMN Adhesion” value (10^-6 M) was “+7%” and the “Average % Change of PMN Adhesion” value (10^-8 M) was 0%.

In the case of “AHKLAENNIQPIFAVT [Peptide 2-16, NH2 --Ala--His--Lys--Leu--Ala--Glu--Asn--Asn--Ile--Gln--Pro--Ile--Phe--Ala--Val--Thr--COOH]”, the “Average % Change of PMN Adhesion” value (10^-4 M) is reported as -7%, the “Average % Change of PMN Adhesion” value (10^-6 M) is reported as -1% and the “Average % Change of PMN Adhesion” value (10^-8 M) is reported as -2%.
